Laboratory results reported in patent publication US20030088077A1, “Metal chelated dyestuff for inkjet recording and aqueous inkjet recording liquid using the same” (MITSUBISHI CHEMICAL CORPORATION, priority 1999, published 2003).

Tests used:
[1] = Indoor discoloring and fading property of a printed image (ozone resistance); format: physicochemical; settings: ozone concentration 3 ppm, humidity 50 to 60%, 2 hours, light-shielded; specialized photoprint paper
Procedure: (b) Indoor discoloring and fading property of a printed image (ozone resistance):
In a light-shielded tank having an ozone concentration of 3 ppm, a printed matter was left on standing under a humidity of 50 to 60% for 2 hours, and the degree of discoloring and fading before and after the standing was measured by Macbeth densitometer (Gretag Macbeth SPM50, manufactured by Macbeth), and quantified as the form of a ΔE value. In the case of the specialized photoprint paper, a good result was obtained at the above measurement wherein the ΔE value was 11.2.

[2] = Light resistance of a recorded image (xenon fade-meter); format: physicochemical; settings: 150 to 160 kJ/m^2 for 80 hours, specialized photoprint paper, larger value = more fading
Procedure: (a) Light resistance of a recorded image:
Using a xenon fade-meter (manufactured by Atlas), a recording paper was irradiated at an irradiation energy of 150 to 160 kJ/m^2 for 80 hours, and the degree of discoloring and fading before and after the irradiation was measured by Macbeth densitometer (Gretag Macbeth SPM50, manufactured by Macbeth), and quantified as the form of a ΔE value. Incidentally, the ΔE value is a numerical value expressing the degree of discoloring and fading. That is, the larger the value is, the larger the degree of discoloring and fading is and the lower the light fastness of the image is. In the case of the specialized photoprint paper, a good result was obtained at the above measurement wherein the ΔE value was 2.1.

N#Cc1nc(/N=N/c2ccc(N(CCC(=O)[O-])CCC(=O)[O-])cc2N)[nH]c1C#N.[Na+].[Na+] [Comparative dyestuff b]
Indoor discoloring & fading property (ΔE) [1]: 4.3
Light resistance (ΔE) [2]: 7.0
